From publication PMC8414802, “Hair Cell Generation in Cochlear Culture Models Mediated by Novel γ-Secretase Inhibitors” (Frontiers in Cell and Developmental Biology, 2021)

Columns and labels:
[1] = tested on: Atoh1, Pou4f3, Myo7a expression in otic spheres; experiment: Otic sphere assay, hair cell gene expression; format: cell-based, mouse
Protocol: The generation of otic spheres followed previously described protocols ([Oshima et al., 2009]) with modifications during differentiation phase to test GSIs. Briefly, OCs were dissociated and single cells were deposited in ultralow-cluster plates (Corning) and expanded in “full otic medium” consisting of DMEM/F12, supplemented with N2, B27 (Thermo Fisher), EGF (20 ng/ml; Chemicon), bFGF (10 ng/ml; Chemicon), IGF-1 (50 ng/ml; Chemicon), and heparan sulfate (50 ng/ml; Sigma-Aldrich). After culturing for 3–4 days at 37°C, spheres were collected, plated in cell culture-treated 96 well-plate and cultured in DMEM/F12, supplemented with N2, B27 with/without GSIs for 7 days after which they were lysed for RNA extraction.
Cells or tissue were lysed using RLT Lysis Buffer (Qiagen) and high purity RNA was prepared on the MagNA Pure instrument using MagNA Pure 96 Cellular RNA LV Kit (Roche). Reagents from Thermo Fisher were used for cDNA synthesis by reverse transcription using random hexamers. Resulting cDNA was RNAse H treated and amplified by TaqMan GEX mastermix and PCR primers and probes for human ATOH1 (Hs00944192_s1) and TBP (Hs00427620_m1), mouse Tbp (Mm00446971_m1), Atoh1 (Mm00476035_s1), Hes5 (Mm00439311_g1), Pouf4s (Mm04213795_s1), and Myo7a (Mm01274015_m1) on the Applied Biosystems QuantStudio 7 Flex Real-Time PCR System. Normalized to Tbp, relative gene expression fold-change was quantified and compared between experimental and control conditions by ΔΔCt calculation.
CPD3 and CPD8 were further compared for their potency to induce hair cell gene expression in otic sphere assays ([Oshima et al., 2009]). Cells were first expanded in presence of growth factors, and in a second step differentiated by growth factor removal and GSI treatment. […] This indicated a modest advantage of CPD3 in eliciting expression of the early hair cell marker Atoh1, but similar potency on expression of some later markers of HC differentiation, Pou4f3 and Myo7a (Figure 2A). From the results of two screening assays, CPD3 was selected for additional characterization studies based on its lower IC50 to induce Atoh1/ATOH1 expression in the otic spheres and LS174T cells, respectively.

[2] = tested on: hair cells in rat OC explants exposed to S. pneumoniae; experiment: OC explants after S. pneumoniae-induced damage; format: cell-based
Protocol: To induce ototoxic damage, medium was removed from the OC cultures on the day after dissection and either 200 μM sisomicin (Sigma) in full otic medium, or 10^8 cfu/ml Streptococcus pneumoniae (described below) in ampicillin-free and FBS-free otic medium were added under the transwell membrane (lower compartment) of the cultivation system. After 2 h of exposure to the ototoxic insult, OCs were carefully washed 3 times and culture was continued for 4 days in fresh full otic medium.
A clinical isolate of S. pneumoniae, serotype 3 was used as previously described ([Leib et al., 2000]; [Perny et al., 2017]). […] Bacteria were diluted to the desired optical density (OD570 nm) and the final inoculum concentration was determined by plating serial dilutions on Columbia sheep blood agar. […]
Dividing cells were labeled with, 5-ethyl-2′-deoxyuridine (EdU) and detected with Click-it Plus kit (Life Technologies). […]
Image processing was performed with the open-source image processing software FIJI, version 2.0 ([Schindelin et al., 2012]). Hair cells were quantified by counting Pou4f3 or Myo7a positive cells of the organ of Corti at three random microscopic fields for each cochlear region (base, middle, and apex) covering in total at least 1,200 μm. The number of hair cells (IHCs and OHCs) is expressed as unit per 100 μm. […]

COc1ccc2c(c1)N1CCC(C)(C)C1=CC(=O)[C@H]2NC(=O)[C@H](C)NC(=O)CCC(F)(F)F [CPD3]
IC50 ([1]; Mus musculus, 168 h, 7 days differentiation with GSI, read-out: IC50 for Atoh1 upregulation): 6.7 nM
Induction of Atoh1, Pou4f3 and Myo7a expression ([1]; dose-responsive, p < 0.05): significantly induced
OHCs after S. pneumoniae damage compared to DMSO ([2]; 4 days treatment after 2 h exposure): more OHCs in all turns of the organ of Corti
Pou4f3/Sox2 double-positive cells after S. pneumoniae damage ([2]; apical domain only, not statistically significant): increased occurrence
